Data as given in patent US7943314B2, “Methods of detecting viability-associated molecules” (ISEAO Technologies Limited, priority 2005, dated 2011).

Experiments:
[1] = test system: methicillin sensitive strain of Staphylococcus aureus (clinical isolate); assay: ATP assay (ligase/quantitative PCR) of Staphylococcus aureus susceptibility to antibiotic, sensitive strain; format: cell-based; conditions: grown 3 hours at 37° C. with 60 μg/ml oxacillin; FIG. 7
Description: (§1) • 1. A bacterial culture of a clinical isolate of a MRSA and antibiotic sensitive strain of Staphylococcus aureus strain were prepared in Nutrient media (Lab M, UK) and grown to stationary phase at 37° C. overnight. • 2. The following day, a hundred-fold dilution of the bacterial cultures were prepared in the same media with 1 μl alkaline phosphatase (10 units, New England Biolabs) with and without 60 μg/ml oxacillin and grown for 3 hours at 37° C. • 3. For the quantitation of ATP, 10 μl of each 0 (10 μl culture removed and treated at time 0 min) and 3 hour culture were added to 2.5 μl of 1M NaOH, 1% (v/v) Triton X-100 and incubated for 5 min before neutralisation with 25 μl of 0.1M HCL. 4. 100 μl of ligase buffer was then added followed by 5 μl ligase/DNA substrate paramagnetic beads (prepared as described in Example 2 above). • 5. After incubation at 8° C. for 60 min, the beads were collected using a magnet and resuspended in 20 μl ligase buffer. • 6. After heating at 95° C. for 5 min, 2 μl of the eluted ligated product was quantitated by PCR. • 7. The quantitative PCR was performed as described previously. Results
There is growth and an increase of ATP observed after 3 hr compared to the zero time point. This growth and increase in ATP is not observed when the organism is grown in the presence of oxacillin. […]

[2] = test system: methicillin resistant strain of Staphylococcus aureus (MRSA clinical isolate); assay: ATP assay (ligase/quantitative PCR) of Staphylococcus aureus susceptibility to antibiotic, MRSA strain; format: cell-based; conditions: grown 3 hours at 37° C. with 60 μg/ml oxacillin; FIG. 8
Description: as §1
There is growth and an increase of ATP observed after 3 hr in the absence of antibiotic compared to the zero time point. […] The organism is not sensitive to this antibiotic and continues to grow and produce ATP in the presence of this antibiotic.

SMILES: Cc1onc(-c2ccccc2)c1C(=O)N[C@@H]1C(=O)N2[C@@H]1SC(C)(C)[C@@H]2C(=O)O [oxacillin]
- growth and increase in ATP after 3 hr compared to the zero time point [1]: not observed
- growth and increase in ATP after 3 hr compared to the zero time point [2]: reduced but not abrogated
